Test results published in patent US7056940B2, “Insecticidal 3-(2,6-disubstituted phenyl)-5-[5-arylthien-2-yl]-1,2,4-triazoles” (Dow AgroSciences LLC, priority 2001, dated 2006).

Tested on: Tobacco Budworm (Heliothis virescens)
Assay: Insecticidal test for tobacco budworm, treated cotton cotyledon leaf disc
Format: in vivo
Set-up: key: A: 90–100; B: 80–89; C: 70–79; D: 60–69; E: 50–59; F: less than 50; G: Inactive
Details: cotton cotyledon leaf-dip, 2nd instar larvae, 5 days
Excerpt: (§1) The compounds are useful for reducing populations of insects and mites and are useful in a method of inhibiting an insect or mite population which comprises applying to a locus of the insect or mite an effective insect- or mite-inactivating amount of a compound of formula (1). The “locus” of insects or mites is a term used herein to refer to the environment in which the insects or mites live or where their eggs are present, including the air surrounding them, the food they eat, or objects which they contact. For example, insects or mites which eat or contact edible or ornamental plants can be controlled by applying the active compound to plant parts such as the seed, seedling, or cutting which is planted, the leaves, stems, fruits, grain, or roots, or to the soil in which the roots are growing. It is contemplated that the compounds might also be useful to protect textiles, paper, stored grain, seeds, domesticated animals, buildings or human beings by applying an active compound to or near such objects. The term “inhibiting an insect or mite” refers to a decrease in the numbers of living insects or mites, or a decrease in the number of viable insect or mite eggs. The extent of reduction accomplished by a compound depends, of course, upon the application rate of the compound, the particular compound used, and the target insect or mite species. At least an inactivating amount should be used. The terms “insect-inactivating amount” and “mite-inactivating amount” are used to describe the amount, which is sufficient to cause a measurable reduction in the treated insect or mite population. Generally an amount in the range from about 1 to about 1000 ppm by weight active compound is used. For example, insects and mites which can be inhibited include, but are not limited to: • Lepidoptera—Heliothis spp., Helicoverpa spp., Spodoptera spp., Mythimna unipuncta, Agrotis ipsilon, Earias spp., Euxoa auxiliaris, Trichoplusia ni, Anticarsia gemmatalis, Rachiplusia nu, Plutella xylostella, Chilo spp., Scirpophaga incertulas, Sesamia inferens, Cnaphalocrocis medinalis, Ostrinia nubilalis, Cydia pomonella, Carposina niponensis, Adoxophyes orana, Archips argyrospilus, Pandemis heparana, Epinotia aporema, Eupoecilia ambiguella, Lobesia botrana, Polychrosis viteana, Pectinophora gossypiella, Pieris rapae, Phyllonorycter spp., Leucoptera malifoliella, Phyllocnisitis citrella • Coleoptera—Diabrotica spp., Leptinotarsa decemlineata, Oulema oryzae, Anthonomus grandis, Lissorhoptrus oryzophilus, Agriotes spp., Melanotus communis, Popillia japonica, Cyclocephala spp., Tribolium spp. • Homoptera—Aphis spp., Myzus persicae, Rhopalosiphum spp., Dysaphis plantaginea, Toxoptera spp., Macrosiphum euphorbiae, Aulacorthum solani, Sitobion avenae, Metopolophium dirhodum, Schizaphis graminum, Brachycolus noxius, Nephotettix spp., Nilaparvata lugens, Sogatella furcifera, Laodelphax striatellus, Bemisia tabaci, Trialeurodes vaporariorum, Aleurodes proletella, Aleurothrixus floccosus, Quadraspidiotus perniciosus, Unaspis yanonensis, Ceroplastes rubens, Aonidiella aurantii • Hemiptera—Lygus spp., Eurygaster maura, Nezara viridula, Piezodorus guildingi, Leptocorisa varicornis • Thysanoptera—Frankliniella occidentalis, Thrips spp., Scirtothrips dorsalis • Isoptera—Reticulitermes flavipes, Coptotermes formosanus • Orthoptera—Blattella germanica, Blatta orientalis, Gryllotalpa spp. • Diptera—Liriomyza spp., Musca domestica, Aedes spp., Culex spp., Anopheles spp. • Hymenoptera—Iridomyrmex humilis, Solenopsis spp., Monomorium pharaonis, Atta spp., Pogonomyrmex spp., Camponotus spp. • Siphonaptera—Ctenophalides spp., Pulex irritans • Acarina—Tetranychus spp., Panonychus spp., Eotetranychus carpini, Phyllocoptruta oleivora, Aculus pelekassi, Brevipalpus phoenicis, Boophilus spp., Dermacentor variabilis, Rhipicephalus sanguineus, Amblyomma americanum, Ixodes spp., Notoedres cati, Sarcoptes scabiei, Dermatophagoides spp. […]

| Compound | TBW: activity at 400 ppm against tobacco budworm (% control rating) |
| --- | --- |
| Cn1nc(-c2c(F)cccc2Cl)nc1-c1sc(-c2ccc(Br)cc2)c(Cl)c1Cl | G |
| Cn1nc(-c2c(F)cccc2Cl)nc1-c1sc(-c2ccc(Br)cc2)cc1Cl | A (90–100) |
| Cc1cc(-c2cccc(OC(F)(F)F)c2)sc1-c1nc(-c2c(F)cccc2Cl)nn1C | G |
| Cc1cc(-c2ccc(F)cc2)sc1-c1nc(-c2c(F)cccc2Cl)nn1C | F (less than 50) |
| Cc1cc(-c2ccc(Cl)c(F)c2)sc1-c1nc(-c2c(F)cccc2Cl)nn1C | B (80–89) |
| Cc1cc(-c2ccc(Cl)cc2F)sc1-c1nc(-c2c(F)cccc2Cl)nn1C | F (less than 50) |

Tested on: Beet Armyworm (Spodoptera exigua)
Assay: Insecticidal test for beet armyworm, treated lepidopteran diet
Format: in vivo
Set-up: key: A: 90–100; B: 80–89; C: 70–79; D: 60–69; E: 50–59; F: less than 50; G: Inactive
Details: on diet surface, second-instar larvae, 5 days
Excerpt: as §1

| Compound | BAW: activity at 400 ppm against beet armyworm (% control rating) |
| --- | --- |
| Cn1nc(-c2c(F)cccc2Cl)nc1-c1sc(-c2ccc(Br)cc2)c(Cl)c1Cl | A (90–100) |
| Cn1nc(-c2c(F)cccc2Cl)nc1-c1sc(-c2ccc(Br)cc2)cc1Cl | A (90–100) |
| Cc1cc(-c2cccc(OC(F)(F)F)c2)sc1-c1nc(-c2c(F)cccc2Cl)nn1C | G |
| Cc1cc(-c2ccc(F)cc2)sc1-c1nc(-c2c(F)cccc2Cl)nn1C | D (60–69) |
| Cc1cc(-c2ccc(Cl)c(F)c2)sc1-c1nc(-c2c(F)cccc2Cl)nn1C | A (90–100) |
| Cc1cc(-c2ccc(Cl)cc2F)sc1-c1nc(-c2c(F)cccc2Cl)nn1C | A (90–100) |

Tested on: Cabbage Looper (Trichoplusia ni)
Assay: Insecticidal test for cabbage looper, treated cabbage leaf disc
Format: in vivo
Details: cabbage leaf-dip, 2nd instar larvae, 5 days
Excerpt: as §1

| Compound | CL: activity at 400 ppm against cabbage looper (% control rating) |
| --- | --- |
| Cn1nc(-c2c(F)cccc2Cl)nc1-c1sc(-c2ccc(Br)cc2)c(Cl)c1Cl | A (90–100) |
| Cn1nc(-c2c(F)cccc2Cl)nc1-c1sc(-c2ccc(Br)cc2)cc1Cl | A (90–100) |
| Cc1cc(-c2cccc(OC(F)(F)F)c2)sc1-c1nc(-c2c(F)cccc2Cl)nn1C | A (90–100) |
| Cc1cc(-c2ccc(F)cc2)sc1-c1nc(-c2c(F)cccc2Cl)nn1C | A (90–100) |
| Cc1cc(-c2ccc(Cl)c(F)c2)sc1-c1nc(-c2c(F)cccc2Cl)nn1C | A (90–100) |
| Cc1cc(-c2ccc(Cl)cc2F)sc1-c1nc(-c2c(F)cccc2Cl)nn1C | A (90–100) |

Tested on: Cotton Aphid (Aphis gossypii)
Assay: Insecticidal test for cotton aphid, spray on infested squash cotyledons
Format: in vivo
Details: 50 ppm spray, 3 days
Description: Insecticidal Test for Cotton Aphid (Aphis gossypii)
To prepare spray solutions, 1 mg of each test compound was dissolved into 1 mL of a 90:10 acetone:ethanol solvent. This 1 mL of chemical solution was added to 19 mL of water containing 0.05% Tween 20 surfactant to produce a 50 ppm spray solution.
Squash cotyledons were infested with cotton aphid (all life stages) 16–20 hours prior to application of spray solution. The solution was sprayed on both sides of each infested squash cotyledon (0.5 mL×2 each side) with a sweeping action until runoff. The plants were allowed to air dry and held for 3 days in a controlled room at 26° C. and 40% RH after which time the test was graded. Grading was by actual count using a dissecting microscope and comparison of test counts to the untreated check. Results are given in Tables 1–4 as percent control based on population reduction versus the untreated.

| Compound | CA: activity at 50 ppm against cotton aphid (% control rating) |
| --- | --- |
| Cn1nc(-c2c(F)cccc2Cl)nc1-c1sc(-c2ccc(Br)cc2)c(Cl)c1Cl | C (70–79) |
| Cn1nc(-c2c(F)cccc2Cl)nc1-c1sc(-c2ccc(Br)cc2)cc1Cl | B (80–89) |
| Cc1cc(-c2cccc(OC(F)(F)F)c2)sc1-c1nc(-c2c(F)cccc2Cl)nn1C | B (80–89) |
| Cc1cc(-c2ccc(F)cc2)sc1-c1nc(-c2c(F)cccc2Cl)nn1C | B (80–89) |
| Cc1cc(-c2ccc(Cl)c(F)c2)sc1-c1nc(-c2c(F)cccc2Cl)nn1C | A (90–100) |
| Cc1cc(-c2ccc(Cl)cc2F)sc1-c1nc(-c2c(F)cccc2Cl)nn1C | C (70–79) |

Tested on: Two-spotted Spider Mite (Tetranychus urticae)
Assay: Insecticidal test for two-spotted spider mite, ovicide method
Format: in vivo
Set-up: key: A: 90–100; B: 80–89; C: 70–79; D: 60–69; E: 50–59; F: less than 50; G: Inactive
Details: cotton leaf discs, 6 days
Description: Insecticidal Test for Two-spotted Spider Mite (Tetranychus urticae)
Ten adult female two-spotted spider mites were placed on eight 2.2 cm leaf discs of cotton leaf, allowed to oviposit over 24 hours, and thereafter removed. […] Discs were placed on an agar substrate and held at 24° C. and 90% RH for 6 days.

| Compound | SM: activity against two-spotted spider mite (% control rating) |
| --- | --- |
| Cn1nc(-c2c(F)cccc2Cl)nc1-c1sc(-c2ccc(Br)cc2)c(Cl)c1Cl | G |
| Cn1nc(-c2c(F)cccc2Cl)nc1-c1sc(-c2ccc(Br)cc2)cc1Cl | A (90–100) |
| Cc1cc(-c2cccc(OC(F)(F)F)c2)sc1-c1nc(-c2c(F)cccc2Cl)nn1C | A (90–100) |
| Cc1cc(-c2ccc(F)cc2)sc1-c1nc(-c2c(F)cccc2Cl)nn1C | A (90–100) |
| Cc1cc(-c2ccc(Cl)c(F)c2)sc1-c1nc(-c2c(F)cccc2Cl)nn1C | A (90–100) |
| Cc1cc(-c2ccc(Cl)cc2F)sc1-c1nc(-c2c(F)cccc2Cl)nn1C | A (90–100) |

Tested on: Sweetpotato Whitefly (Bemisia tabacia)
Assay: Insecticidal test for sweetpotato whitefly, spray on cotton plants
Format: in vivo
Set-up: key: A: 90–100; B: 80–89; C: 70–79; D: 60–69; E: 50–59; F: less than 50; G: Inactive
Details: 200 ppm spray, 13 days, large nymphs
Description: Insecticidal Test for Sweetpotato Whitefly (Bemisia tabacia)
Four mg of each test compound was dissolved by adding 4 mL of a 90:10 acetone:ethanol solvent mixture to the vial containing the sample compound. This solution was added to 16 mL of water containing 0.05% Tween 20 surfactant to produce 20 mL of an 200 ppm spray solution.
Five-week-old cotton plants reared in a greenhouse were stripped of all foliage except for the two uppermost true leaves that were greater than 5 cm in diameter. These plants were then placed into a laboratory colony of whiteflies for two days for oviposition by the colony females. All whiteflies were then removed from the test plants with pressurized air. The spray solution was then applied to the test plants with a hand-held syringe fitted with hollow cone nozzle. One mL spray solution was applied to each leaf top and bottom for a total of 4 mL per plant. Four replications of each test compound utilized a total of 16 mL spray solution. Plants were air dried and then placed in a holding chamber (28° C. and 60% RH) for 13 days. Compound efficacy was evaluated by counting, under an illuminated magnifying glass, the number of large nymphs (3rd–4th instar) per leaf.
Percent control based on reduction of large nymphs of a test compound compared to solution-only (no test compound) sprayed plants is reported in Tables 1–4.

| Compound | WF: activity at 200 ppm against whitefly (% control rating) |
| --- | --- |
| Cn1nc(-c2c(F)cccc2Cl)nc1-c1sc(-c2ccc(Br)cc2)c(Cl)c1Cl | E (50–59) |
| Cn1nc(-c2c(F)cccc2Cl)nc1-c1sc(-c2ccc(Br)cc2)cc1Cl | G |
| Cc1cc(-c2cccc(OC(F)(F)F)c2)sc1-c1nc(-c2c(F)cccc2Cl)nn1C | F (less than 50) |
| Cc1cc(-c2ccc(F)cc2)sc1-c1nc(-c2c(F)cccc2Cl)nn1C | G |
| Cc1cc(-c2ccc(Cl)c(F)c2)sc1-c1nc(-c2c(F)cccc2Cl)nn1C | G |
| Cc1cc(-c2ccc(Cl)cc2F)sc1-c1nc(-c2c(F)cccc2Cl)nn1C | G |
